Columns and labels:
[1] = tested on: fructose-fed hypertriglyceridemic rats; assay: Fructose-fed hypertriglyceridemic rat model; type: in vivo
Text: (§1) It is likely that the triglyceride-lowering effect of NDGA may also be explained, at least in part, by the suppression of free fatty acid (FFA) release. Free fatty acids in the circulation can enter the liver and can be re-assembled into triglycerides by the process of re-esterification. […] It should be noted that other mechanisms for reducing triglycerides, such as increased triglyceride clearance, are not ruled out by these findings.
These reductions in free fatty acid concentration could result from either decreased production (by reduced lipolysis) or increased removal of free fatty acids from the circulation by liver, fat or muscle.

[2] = tested on: liver triglyceride secretion; assay: Liver triglyceride secretion; type: in vivo; settings: NDGA treatment
Text: as §1
The triglyceride-lowering effect of NDGA may be explained by the suppression of free fatty acid (FFA) release. Free fatty acids in the circulation can enter the liver and be re-assembled into triglycerides in a process known as re-esterification.

[3] = First Phase I ascending single-dose study, NDGA concentrations in plasma after oral capsules; type: in vivo, human; settings: for AUC0-last / Cmax / Tmax: capsule, healthy male volunteers
Experimental: (§2) The first Phase I study of NDGA was an ascending-dose, single-dose, single-blind (subject), placebo-controlled study conducted in healthy male volunteers between 18 and 45 years old. Fourteen subjects participated in up to 3 study periods, and 5 doses of NDGA were studied: 200, 400, 800, 1600, and 2000 mg. During each study period the subjects were monitored for safety for 72 hours following NDGA oral administration. Blood samples collected following NDGA administration were used to determine NDGA concentrations in plasma. […] The orally administered NDGA used in the study was contained in white, opaque, size 3 gelatin capsules. Each capsule contained 100 mg of NDGA.
The results for each of the five doses are depicted in FIGS. 4 to 8 corresponding to 200, 400, 800, 1600 and 2000 mg dosages, respectively.
The pharmacokinetic parameters of NDGA as observed in this experiment are given below in Table 1: […]

cecum = settings: in vivo; cited from earlier work
[4] = Phase I safety study, patients reporting adverse events; type: in vivo, human; settings: n = 29
Experimental: as §2
The second Phase I study of NDGA was an open-label, randomized, two-period crossover study designed to determine if a high-fat meal affects the absorption of NDGA, and to provide preliminary information about possible gender differences in the pharmacokinetics of NDGA. A total of 16 healthy volunteers (8 men and 8 women), ranging in age from 19 to 48 years old, participated in this study. Each subject received an active NDGA dose under fasted conditions and another under fed conditions (the two study periods were separated by a 7-day washout period). Blood samples were collected immediately before and for 48 hours following NDGA administration and used for determination of plasma concentrations of NDGA. The NDGA used in the study was provided in white, opaque Size 0 gelatin capsules. Each capsule contained 250 mg of NDGA.

CC(Cc1ccc(O)c(O)c1)C(C)Cc1ccc(O)c(O)c1 (centres unmarked) [NDGA, nordihydroguaiaretic acid]
free fatty acid (FFA) concentrations ([1]; fructose-fed hypertriglyceridemic rats): decreases free fatty acid (FFA) concentrations
glucose lowering ([1]; fructose-fed rats, 80 mg/kg twice daily): did not lower glucose levels
triglyceride lowering ([1]; hypertriglyceridemic rat model, low doses of 10 and 20 mg/kg): triglyceride-lowering effects
liver triglyceride secretion [2]: inhibit liver triglyceride secretion
AUC0-last ([3]; 200 mg single oral dose): 66 +/− 26 ng-eq hr/ml
Cmax ([3]; 200 mg single oral dose): 32.6 +/− 15.3 ng-eq/ml
Tmax ([3]; 200 mg single oral dose): 1.3 ± 0.5 h
AUC0-last ([3]; 400 mg single oral dose): 385 +/− 90 ng-eq hr/ml
Cmax ([3]; 400 mg single oral dose): 69.1 +/− 51.6 ng-eq/ml
Tmax ([3]; 400 mg single oral dose): 1.8 ± 0.5 h
AUC0-last ([3]; 800 mg single oral dose): 591 +/− 252 ng-eq hr/ml
Cmax ([3]; 800 mg single oral dose): 120.3 +/− 66.3 ng-eq/ml
Tmax ([3]; 800 mg single oral dose): 1.8 ± 1.0 h
AUC0-last ([3]; 1600 mg single oral dose): 889 +/− 252 ng-eq hr/ml
Cmax ([3]; 1600 mg single oral dose): 189.3 +/− 65.7 ng-eq/ml
Tmax ([3]; 1600 mg single oral dose): 1.5 ± 0.6 h
AUC0-last ([3]; 2000 mg single oral dose): 1380 +/− 514 ng-eq hr/ml
Cmax ([3]; 2000 mg single oral dose): 187.6 +/− 106.0 ng-eq/ml
Tmax ([3]; 2000 mg single oral dose): 1.0 ± 0.0 h
Safety of each tested dose ([3]; 200, 400, 800, 1600 and 2000 mg single oral dose, monitored 72 hours): considered safe
Shape of concentration vs. time curves ([3]; all five doses, 200 to 2000 mg): unimodal (single peak)
Dose proportionality of peaks ([3]; increasing dose levels, 200 to 2000 mg): less than dose proportional
Elimination ([3]; oral capsule (immediate release), lower dose levels): rapid elimination
lesions in the cecum (cecum): known to cause lesions in the cecum
Patients reporting adverse event: Abdominal pain ([4]; Body as a whole): 1
Patients reporting adverse event: Asthenia ([4]; Body as a whole): 2
Patients reporting adverse event: Headache ([4]; Body as a whole): 8
Patients reporting adverse event: Neck rigidity ([4]; Body as a whole): 1
Patients reporting adverse event: Pain ([4]; Body as a whole): 1
Patients reporting adverse event: Syncope ([4]; Cardiovascular system): 1
Patients reporting adverse event: Diarrhea ([4]; Digestive system): 2
Patients reporting adverse event: Dyspepsia ([4]; Digestive system): 1
Patients reporting adverse event: GI hemorrhage ([4]; Digestive system): 1
Patients reporting adverse event: Increased appetite ([4]; Digestive system): 1
Patients reporting adverse event: Vomiting ([4]; Digestive system): 1
Patients reporting adverse event: Dizziness ([4]; Nervous system): 1
Patients reporting adverse event: Hyperesthesia ([4]; Nervous system): 1
Patients reporting adverse event: Increased coughing ([4]; Respiratory system): 1
Patients reporting adverse event: Pharyngitis ([4]; Respiratory system): 1
Patients reporting adverse event: Eye pain ([4]; Special senses): 1
Patients reporting adverse event: Hematuria ([4]; Urogenital system): 1

Source: patent US9198879B2, “Pharmacologically optimized multimodal drug delivery system for nordihydroguiaretic acid (NDGA)” (Napo Pharmaceuticals, Inc., priority 2011, dated 2015)
